Source: US9670147B2, “Antioxidant inflammation modulators: oleanolic acid derivatives with amino and other modifications at C-17” (REATA PHARMACEUTICALS, INC., priority 2008, dated 2017)

Experiments:
HO-1 = test: Nrf2 target gene induction in MDA-MB-435 cells, qPCR: HO-1; format: cell-based, human; conditions: 16 hours
Description: FIG. 43. Induction of HO-1. FIGS. 43A and 43B: MDA-MB-435 human melanoma cells were treated with vehicle (DMSO) or the indicated compounds and concentrations for 16 hours. HO-1 mRNA levels were quantified using qPCR and were normalized relative to a DMSO-treated sample run in parallel. Values are averages of duplicate wells. FIG. 43C: MDA-MB-435 cells were treated with vehicle (DMSO) or the indicated compounds at 400 nM for 16 hours. HO-1, TrxR1 and actin protein levels were assayed by immunoblotting. Actin served as a loading control.
(§1) FIGS. 44, 46 and 47—Induction of HO-1, TrxR1 and γ-GCS. FIGS. 44A-C, 46A-C, 47A-C: MDA-MB-435 human melanoma cells were treated with vehicle (DMSO) or the indicated compounds (400 nM) for 16 hours. HO-1, thioredoxin reductase-1 (TrxR1), and γ-glutamylcysteine synthetase (γ-GCS) mRNA levels were quantified using qPCR and were normalized relative to a DMSO-treated sample run in parallel. Values are averages of duplicate wells. FIGS. 44D, 46D, 47D: MDA-MB-435 cells were treated with vehicle (DMSO) or the indicated compounds at 400 nM for 16 hours. HO-1, TrxR1 and actin protein levels were assayed by immunoblotting.
(§2) FIG. 45. Induction of HO-1, TrxR1 and γ-GCS. FIGS. 45 A-C: MDA-MB-435 cells were treated with vehicle (DMSO) or the indicated compounds at 160 nM for 16 hours. HO-1, TrxR1, and γ-GCS mRNA levels were quantified by qPCR and were normalized relative to a DMSO-treated sample run in parallel. Values are averages of duplicate wells. FIGS. 44D, 46D, 47D: MDA-MB-435 cells were treated with vehicle (DMSO) or the indicated compounds at 160 nM for 16 hours. HO-1, TrxR1 and actin protein levels were assayed by immunoblotting.
(§3) MDA-MB-435 human melanoma cells were treated with vehicle (DMSO) or the indicated compounds and concentrations for 16 hours. HO-1, thioredoxin reductase-1 (TrxR1), γ-glutamylcysteine synthetase (γ-GCS), and ferritin heavy chain mRNA levels were quantified using qPCR and were normalized relative to a DMSO-treated sample run in parallel. Values are averages of duplicate wells. Primer sequences are as follows.

iNOS [1] = test: iNOS Western blot in RAW264.7 mouse macrophages; format: cell-based; conditions: compounds at 300 nM for 2 hours, 24 hour induction by IFNγ, read-out: iNOS suppr. WB
Description: FIGS. 38-40. iNOS Western Blot in RAW264.7 mouse macrophages. Cells were pretreated by compounds at 300 nM for 2 hours, followed by 24 hour induction by IFNγ (20 ng/ml). […]

RAW264.7 macrophages = test: Cell viability, WST-1 reagent; format: cell-based, mouse; conditions: Mus musculus, 2 h pre-treatment, then 20 ng/ml IFNγ for 24 hours
Description: (§4) FIGS. 1-34. Inhibition of NO Production. RAW264.7 macrophages were pre-treated with DMSO or drugs at various concentrations (nM) for 2 hours, then treated with 20 ng/ml IFNγ for 24 hours. NO concentration in media was determined using the Griess reagent system; cell viability was determined using WST-1 reagent. FIGS. 49-52. Inhibition of NO Production. RAW264.7 macrophages were pre-treated with DMSO or drugs at various concentrations (nM) for 2 hours, then treated with 20 ng/ml IFNγ for 24 hours. NO concentration in media was determined using the Griess reagent system; cell viability was determined using WST-1 reagent. RAW264.7 macrophages were pre-treated with DMSO or drugs for 2 hours, then treated with recombinant mouse IFNγ (Sigma) for 24 hours. NO concentration in media was determined using the Griess reagent system (Promega). Cell viability was determined using WST-1 reagent (Roche).

iNOS [2] = test: Suppression of iNOS mRNA induction, qPCR; format: cell-based, mouse; conditions: RAW264.7; 2 h pre-treatment, 10 ng/ml IFNγ for 2 hours
Description: (§5) FIG. 35. Suppression of iNOS mRNA induction. RAW264.7 mouse macrophages were pre-treated for 2 hours with compounds at the indicated concentrations and subsequently stimulated with 10 ng/ml IFNγ for an additional 2 hours. mRNA levels of iNOS were quantified by qPCR and are shown relative to the vehicle-treated IFNγ-stimulated sample which was normalized to a value of 1. Values are averages of duplicate PCR reactions, each with triplicate wells.
as §5, with “36.” for “35.”
as §5, with “37.” for “35.”
as §5, with “RAW264.7” for “FIG. 35. Suppression of iNOS mRNA induction. RAW264.7”, “macrophage cells” for “macrophages”

[3] = system: IFNγ-induced NO production in RAW264.7 macrophages; test: Suppression of IFNγ-induced NO production (Griess reagent); format: cell-based, mouse; conditions: Mus musculus, 2 h pre-treatment, then 20 ng/ml IFNγ for 24 hours
Description: as §4

TrxR1 = test: Nrf2 target gene induction in MDA-MB-435 cells, qPCR: TrxR1; format: cell-based, human; conditions: 16 hours
Description: as §1, §2, §3

γ-GCS = test: Nrf2 target gene induction in MDA-MB-435 cells, qPCR: γ-GCS; format: cell-based, human; conditions: 160 nM, 16 hours
Description: as §1, §2, §3

| Structure (SMILES) | HO-1 induction (HO-1; 400 nM) | inhibition at 0.3 µM (iNOS [1]) | IC50 (RAW264.7 macrophages) | iNOS suppr. qPCR (iNOS [2]) | IC50 [3] | TrxR1 induction (TrxR1; 400 nM) | HO-1 induction (HO-1; 160 nM) | γ-GCS induction (γ-GCS) | TrxR1 induction (TrxR1; 160 nM) |
| --- | --- | --- | --- | --- | --- | --- | --- | --- | --- |
| COC(=O)N[C@]12CCC(C)(C)C[C@H]1[C@H]1C(=O)C=C3[C@@]4(C)C=C(C#N)C(=O)C(C)(C)[C@@H]4CC[C@@]3(C)[C@]1(C)CC2 [Compound 63167, methyl-(4aS,6aR,6bS,8aR,12aS,14aR,14bS)-11-cyano-2,2,6a,6b,9,9,12a-heptamethyl-10,14-dioxo-1,2,3,4,4a,5,6,6a,6b,7,8,8a,9,10,12a,14,14a,14b-octadecahydropicen-4a-ylcarbamate] | 61% of induction observed for RTA 402 | ~90% | 180 nM | ~50% | 2 nM | 62% of induction observed for RTA 402 |  |  |  |
| CC1(C)CC[C@]2(N)CC[C@]3(C)[C@H](C(=O)C=C4[C@@]5(C)C=C(C#N)C(=O)C(C)(C)[C@@H]5CC[C@]43C)[C@@H]2C1 [Compound 63169, (4aR,6aS,6bR,8aS,12aS,12bR,14bS)-8a-amino-4,4,6a,6b,11,11,14b-heptamethyl-3,13-dioxo-3,4,4a,5,6,6a,6b,7,8,8a,9,10,11,12,12a,12b,13,14b-octadecahydropicene-2-carbonitrile] |  | ~90% | > 200 nM | ~50% | 3.6 nM |  | 2% of induction observed for RTA 402 | 73% of induction observed for RTA 402 | 129% of induction observed for RTA 402 |
| CC1(C)CC[C@]2(NS(C)(=O)=O)CC[C@]3(C)[C@H](C(=O)C=C4[C@@]5(C)C=C(C#N)C(=O)C(C)(C)[C@@H]5CC[C@]43C)[C@@H]2C1 [Compound 63175, N-((4aS,6aR,6bS,8aR,12aS,14aR,14bS)-11-cyano-2,2,6a,6b,9,9,12a-heptamethyl-10,14-dioxo-1,2,3,4,4a,5,6,6a,6b,7,8,8a,9,10,12a,14,14a,14b-octadecahydropicen-4a-yl)methanesulfonamide] | 10% of induction observed for RTA 402 | ~90% | 200 nM | ~65% | 2 nM | 48% of induction observed for RTA 402 | 15% of induction observed for RTA 402 | 64% of induction observed for RTA 402 | 86% of induction observed for RTA 402 |
| C=CC(=O)N[C@]12CCC(C)(C)C[C@H]1[C@H]1C(=O)C=C3[C@@]4(C)C=C(C#N)C(=O)C(C)(C)[C@@H]4CC[C@@]3(C)[C@]1(C)CC2 [Compound 63183, N-((4aS,6aR,6bS,8aR,12aS,14aR,14bS)-11-cyano-2,2,6a,6b,9,9,12a-heptamethyl-10,14-dioxo-1,2,3,4,4a,5,6,6a,6b,7,8,8a,9,10,12a,14,14a,14b-octadecahydropicen-4a-yl)acrylamide] |  | ~90% | 150 nM | 50% | 4 nM |  | 28% of induction observed for RTA 402 | 55% of induction observed for RTA 402 | 71% of induction observed for RTA 402 |
| CC1(C)CC[C@]2(NC(=O)N3CCC(O)CC3)CC[C@]3(C)[C@H](C(=O)C=C4[C@@]5(C)C=C(C#N)C(=O)C(C)(C)[C@@H]5CC[C@]43C)[C@@H]2C1 [Compound 63185, N-((4aS,6aR,6bS,8aR,12aS,14aR,14bS)-11-cyano-2,2,6a,6b,9,9,12a-heptamethyl-10,14-dioxo-1,2,3,4,4a,5,6,6a,6b,7,8,8a,9,10,12a,14,14a,14b-octadecahydropicen-4a-yl)-4-hydroxypiperidine-1-carboxamide] |  | 0% | > 200 nM | 0% | 91 nM |  | 1% of induction observed for RTA 402 | 27% of induction observed for RTA 402 | 71% of induction observed for RTA 402 |
| CC1(C)CC[C@]2(NS(=O)(=O)c3ccccc3)CC[C@]3(C)[C@H](C(=O)C=C4[C@@]5(C)C=C(C#N)C(=O)C(C)(C)[C@@H]5CC[C@]43C)[C@@H]2C1 [Compound 63192, N-((4aS,6aR,6bS,8aR,12aS,14aR,14bS)-11-cyano-2,2,6a,6b,9,9,12a-heptamethyl-10,14-dioxo-1,2,3,4,4a,5,6,6a,6b,7,8,8a,9,10,12a,14,14a,14b-octadecahydropicen-4a-yl)benzenesulfonamide] |  | > 90% | 150 nM | ~60% | 2.8 nM |  | 1% of induction observed for RTA 402 | 9% of induction observed for RTA 402 | 14% of induction observed for RTA 402 |
| CCS(=O)(=O)N[C@]12CCC(C)(C)C[C@H]1[C@H]1C(=O)C=C3[C@@]4(C)C=C(C#N)C(=O)C(C)(C)[C@@H]4CC[C@@]3(C)[C@]1(C)CC2 [Compound 63193, N-((4aS,6aR,6bS,8aR,12aS,14aR,14bS)-11-cyano-2,2,6a,6b,9,9,12a-heptamethyl-10,14-dioxo-1,2,3,4,4a,5,6,6a,6b,7,8,8a,9,10,12a,14,14a,14b-octadecahydropicen-4a-yl)ethanesulfonamide] |  | > 90% | > 200 nM | ~65% | 1.5 nM |  | 6% of induction observed for RTA 402 | 55% of induction observed for RTA 402 | 86% of induction observed for RTA 402 |
| CC1(C)CC[C@]2(NS(=O)(=O)C3CC3)CC[C@]3(C)[C@H](C(=O)C=C4[C@@]5(C)C=C(C#N)C(=O)C(C)(C)[C@@H]5CC[C@]43C)[C@@H]2C1 [Compound 63243, N-((4aS,6aR,6bS,8aR,12aS,14aR,14bS)-11-cyano-2,2,6a,6b,9,9,12a-heptamethyl-10,14-dioxo-1,2,3,4,4a,5,6,6a,6b,7,8,8a,9,10,12a,14,14a,14b-octadecahydropicen-4a-yl)cyclopropanesulfonamide] |  | ~90% | 150 nM | 50% | 2.9 nM |  | 25% of induction observed for RTA 402 | 36% of induction observed for RTA 402 | 57% of induction observed for RTA 402 |
